In ChEMBL document CHEMBL1671652, “Efficacy of piperacillin combined with the Penem beta-lactamase inhibitor BLI-489 in murine models of systemic infection” (2009):
Values after ≈ are worked out from the molar mass of the structure shown.

Tests used:
[1] = test system: Klebsiella pneumoniae; assay: Antimicrobial activity against SHV-1and SHV-5 beta-lactamase producing Klebsiella pneumoniae GAR 7978 by broth microdilution method in presence of 8:1 ratio of compound to beta-lactamase inhibitor BLI-489; format: functional
[2] = test system: Klebsiella pneumoniae; assay: Antimicrobial activity against SHV-11 beta-lactamase producing Klebsiella pneumoniae GAR 7693 infected in CD-1 mouse treated 30 and 150 mins postinfection; format: functional
[3] = test system: Salmonella typhimurium; assay: Antimicrobial activity against CTX-M-5 beta-lactamase producing Salmonella enterica serovar Typhimurium GC 4195 infected in CD-1 mouse treated 30 and 150 mins postinfection; format: functional, Salmonella enterica subsp. enterica serovar Typhimurium
[4] = test system: Staphylococcus aureus; assay: Antimicrobial activity against penicillinase producing Staphylococcus aureus GC 6468 by broth microdilution method in presence of 8:1 ratio of compound to beta-lactamase inhibitor BLI-489; format: functional
[5] = test system: Escherichia coli; assay: Antimicrobial activity against TEM-1 beta-lactamase producing Escherichia coli GC 6265 by broth microdilution method; format: functional
[6] = test system: Escherichia coli; assay: Antimicrobial activity against TEM-10 beta-lactamase producing Escherichia coli GC 2022 infected in CD-1 mouse treated 30 mins postinfection in presence of beta-lactamase inhibitor Tazobactam; format: functional; conditions: GC 2022, 0.5 h
[7] = test system: Escherichia coli; assay: Antimicrobial activity against TEM-10 beta-lactamase producing Escherichia coli GC 2022 by broth microdilution method in presence of 8:1 ratio of compound to beta-lactamase inhibitor BLI-489; format: functional
[8] = test system: Escherichia coli; assay: Antimicrobial activity against TEM-1 beta-lactamase producing Escherichia coli GC 6265 by broth microdilution method in presence of beta-lactamase inhibitor Tazobactam; format: functional
[9] = test system: Klebsiella pneumoniae; assay: Antimicrobial activity against SHV-11beta-lactamase producing Klebsiella pneumoniae GAR 7693 infected in CD-1 mouse treated 30 and 150 mins postinfection in presence of 8:1 ratio of compound to beta-lactamase inhibitor BLI-489; format: functional
[10] = test system: Klebsiella pneumoniae; assay: Antimicrobial activity against SHV-1and SHV-5 beta-lactamase producing Klebsiella pneumoniae GAR 7978 infected in CD-1 mouse treated 30 and 150 mins postinfection in presence of beta-lactamase inhibitor Tazobactam; format: functional
[11] = test system: Escherichia coli; assay: Antimicrobial activity against TEM-1 beta-lactamase producing Escherichia coli GC 6265 infected in CD-1 mouse treated 30 mins postinfection in presence of 12:1 ratio of compound to beta-lactamase inhibitor BLI-489; format: functional; conditions: GC 6265, 0.5 h
[12] = test system: Escherichia coli; assay: Antimicrobial activity against TEM-1 beta-lactamase producing Escherichia coli GC 6265 infected in CD-1 mouse treated 30 mins postinfection in presence of 2:1 ratio of compound to beta-lactamase inhibitor BLI-489; format: functional; conditions: GC 6265, 0.5 h
[13] = test system: Escherichia coli; assay: Antimicrobial activity against ACT-1 beta-lactamase producing Escherichia coli GC 2814 infected in CD-1 mouse treated 30 and 150 mins postinfection in presence of beta-lactamase inhibitor Tazobactam; format: functional
[14] = test system: Escherichia coli; assay: Antimicrobial activity against TEM-10 beta-lactamase producing Escherichia coli GC 2022 by broth microdilution method in presence of beta-lactamase inhibitor Tazobactam; format: functional
[15] = test system: Salmonella typhimurium; assay: Antimicrobial activity against CTX-M-5 beta-lactamase producing Salmonella enterica serovar Typhimurium GC 4195 by broth microdilution method; format: functional, Salmonella enterica subsp. enterica serovar Typhimurium
[16] = test system: Klebsiella pneumoniae; assay: Antimicrobial activity against SHV-11 beta-lactamase producing Klebsiella pneumoniae GAR 7693 by broth microdilution method in presence of 8:1 ratio of compound to beta-lactamase inhibitor BLI-489; format: functional
[17] = test system: Escherichia coli; assay: Antimicrobial activity against TEM-10 beta-lactamase producing Escherichia coli GC 2022 by broth microdilution method; format: functional
[18] = test system: Staphylococcus aureus; assay: Antimicrobial activity against penicillinase producing Staphylococcus aureus GC 6468 by broth microdilution method in presence of beta-lactamase inhibitor Tazobactam; format: functional
[19] = test system: Escherichia coli; assay: Antimicrobial activity against TEM-10 beta-lactamase producing Escherichia coli GC 2022 infected in CD-1 mouse treated 30 mins postinfection; format: functional; conditions: GC 2022, 0.5 h
[20] = test system: Escherichia coli; assay: Antimicrobial activity against TEM-1 beta-lactamase producing Escherichia coli GC 6265 infected in CD-1 mouse treated 30 mins postinfection in presence of 10:1 ratio of compound to beta-lactamase inhibitor BLI-489; format: functional; conditions: GC 6265, 0.5 h
[21] = test system: Klebsiella pneumoniae; assay: Antimicrobial activity against SHV-11beta-lactamase producing Klebsiella pneumoniae GAR 7693 infected in CD-1 mouse treated 30 and 150 mins postinfection in presence of beta-lactamase inhibitor Tazobactam; format: functional
[22] = test system: Escherichia coli; assay: Antimicrobial activity against TEM-1 beta-lactamase producing Escherichia coli GC 6265 infected in CD-1 mouse treated 30 mins postinfection; format: functional; conditions: GC 6265, 0.5 h
[23] = test system: Escherichia coli; assay: Antimicrobial activity against OXA-1 beta-lactamase producing Escherichia coli GAR 5946 by broth microdilution method; format: functional
[24] = test system: Enterobacter cloacae; assay: Antimicrobial activity against AmpC beta-lactamase producing Enterobacter cloacae GC 4142 infected in CD-1 mouse treated 30 and 150 min postinfection in presence of 12:1 ratio of compound to beta-lactamase inhibitor BLI-489; format: functional
[25] = test system: Enterobacter cloacae; assay: Antimicrobial activity against AmpC beta-lactamase producing Enterobacter cloacae GC 4142 infected in CD-1 mouse treated 30 and 150 min postinfection in presence of 14:1 ratio of compound to beta-lactamase inhibitor BLI-489; format: functional
[26] = test system: Enterobacter cloacae; assay: Antimicrobial activity against AmpC beta-lactamase producing Enterobacter cloacae GC 4142 infected in CD-1 mouse treated 30 and 150 mins postinfection in presence of beta-lactamase inhibitor Tazobactam; format: functional
[27] = test system: Enterobacter cloacae; assay: Antimicrobial activity against AmpC beta-lactamase producing Enterobacter cloacae GC 4142 infected in CD-1 mouse treated 30 and 150 min postinfection in presence of 4:1 ratio of compound to beta-lactamase inhibitor BLI-489; format: functional
[28] = test system: Enterobacter cloacae; assay: Antimicrobial activity against AmpC beta-lactamase producing Enterobacter cloacae GC 4142 infected in CD-1 mouse treated 30 and 150 min postinfection in presence of 6:1 ratio of compound to beta-lactamase inhibitor BLI-489; format: functional
[29] = test system: Escherichia coli; assay: Antimicrobial activity against ACT-1 beta-lactamase producing Escherichia coli GC 2814 infected in CD-1 mouse treated 30 and 150 mins postinfection; format: functional
[30] = test system: Enterobacter cloacae; assay: Antimicrobial activity against AmpC beta-lactamase producing Enterobacter cloacae GC 4142 infected in CD-1 mouse treated 30 and 150 min postinfection in presence of 8:1 ratio of compound to beta-lactamase inhibitor BLI-489; format: functional
[31] = test system: Escherichia coli; assay: Antimicrobial activity against TEM-1 beta-lactamase producing Escherichia coli GC 6265 infected in CD-1 mouse treated 30 mins postinfection in presence of 6:1 ratio of compound to beta-lactamase inhibitor BLI-489; format: functional; conditions: GC 6265, 0.5 h
[32] = test system: Escherichia coli; assay: Antimicrobial activity against TEM-1 beta-lactamase producing Escherichia coli GC 6265 infected in CD-1 mouse treated 30 mins postinfection in presence of beta-lactamase inhibitor Tazobactam; format: functional; conditions: GC 6265, 0.5 h
[33] = test system: Klebsiella pneumoniae; assay: Antimicrobial activity against SHV-1and SHV-5 beta-lactamase producing Klebsiella pneumoniae GAR 7978 infected in CD-1 mouse treated 30 and 150 mins postinfection in presence of 8:1 ratio of compound to beta-lactamase inhibitor BLI-489; format: functional
[34] = test system: Escherichia coli; assay: Antimicrobial activity against ACT-1 beta-lactamase producing Escherichia coli GC 2814 by broth microdilution method; format: functional
[35] = test system: Salmonella typhimurium; assay: Antimicrobial activity against CTX-M-5 beta-lactamase producing Salmonella enterica serovar Typhimurium GC 4195 by broth microdilution method in presence of 8:1 ratio of compound to beta-lactamase inhibitor BLI-489; format: functional, Salmonella enterica subsp. enterica serovar Typhimurium
[36] = test system: Escherichia coli; assay: Antimicrobial activity against TEM-1 beta-lactamase producing Escherichia coli GC 6265 infected in CD-1 mouse treated 30 mins postinfection in presence of 14:1 ratio of compound to beta-lactamase inhibitor BLI-489; format: functional; conditions: GC 6265, 0.5 h

CCN1CCN(C(=O)N[C@@H](C(=O)N[C@@H]2C(=O)N3[C@@H]2SC(C)(C)[C@@H]3C(=O)O)c2ccccc2)C(=O)C1=O [PIPERACILLIN]
MIC [1]: 8 µg/mL | ED50 [2]: 193 mg/kg | ED50 [3]: 1120 mg/kg | MIC [4]: 1 µg/mL | MIC [5]: > 64 µg/mL | ED50 [6]: 25 mg/kg | MIC [7]: > 64 µg/mL | MIC [8]: 128 µg/mL | ED50 [9]: 23 mg/kg | ED50 [10]: 58 mg/kg | ED50 [11]: 11 mg/kg | ED50 [12]: 8.5 mg/kg | ED50 [13]: 45 mg/kg | MIC [14]: 2 µg/mL | MIC [15]: 8 µg/mL (≈ 15.5 µM) | MIC [16]: > 64 µg/mL | MIC [17]: 1 µg/mL (≈ 1.93 µM) | MIC [18]: 1 µg/mL | ED50 [19]: 301 mg/kg | ED50 [20]: 12 mg/kg | ED50 [21]: 24 mg/kg | ED50 [22]: 176 mg/kg | MIC [23]: 2 µg/mL (≈ 3.86 µM) | ED50 [24]: 60 mg/kg | ED50 [25]: 69 mg/kg | ED50 [26]: 71 mg/kg | ED50 [27]: 30 mg/kg | ED50 [28]: 30 mg/kg | ED50 [29]: 103 mg/kg | ED50 [30]: 32 mg/kg | ED50 [31]: 12 mg/kg | ED50 [32]: 11 mg/kg | ED50 [33]: 28 mg/kg | MIC [34]: 2 µg/mL (≈ 3.86 µM) | MIC [35]: > 64 µg/mL | ED50 [36]: 16 mg/kg
